Data published in US12655116B2, “Substituted isophthalic acid diamides” (Bayer Aktiengesellschaft, priority 2020, dated 2026).

Assays:
ABUTH [1] = assay: Pre-emergence herbicidal action against ABUTH; type: in vivo, Abutilon theophrasti; conditions: for Pre-emergence action against ABUTH (herbicidal activity): 80 g/ha, scored visually after 3 weeks vs untreated controls (100% = plants have died, 0% = like control plants); for Pre-emergence action against ABUTH (herbicidal activity in percent): dosage 20 g/ha, scored visually after 3 weeks vs untreated controls, 100% = plants have died, 0% = like control plants
In short: (§1)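 Greenhouse pots of sandy loam held seeds covered with soil, onto which the compound was applied before emergence. An aqueous suspension or emulsion of WP or EC was used at 600 to 800 l/ha with 0.2% wetting agent. Percent damage was judged visually at 3 weeks.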

ALOMY [2] = assay: Pre-emergence herbicidal action against ALOMY; type: in vivo, Alopecurus myosuroides; conditions: 80 g/ha, pre-emergence, scored visually after 3 weeks vs untreated controls (100% = plants have died, 0% = like control plants)
In short: as §1

AMARE [3] = assay: Pre-emergence herbicidal action against AMARE; type: in vivo, Amaranthus retroflexus
In short: as §1

ECHCG [4] = assay: Pre-emergence herbicidal action against ECHCG; type: in vivo, Echinochloa crus-galli; conditions: 80 g/ha
In short: as §1

MATIN [5] = assay: Pre-emergence herbicidal action against MATIN; type: in vivo, Matricaria inodora
In short: as §1

PHBPU [6] = assay: Pre-emergence herbicidal action against PHBPU; type: in vivo, Pharbitis purpurea; conditions: dosage 80 g/ha
In short: as §1

POLCO = assay: Pre-emergence herbicidal action against POLCO; type: in vivo, Polygonum convolvulus
In short: as §1

SETVI [7] = assay: Pre-emergence herbicidal action against SETVI; type: in vivo, Setaria viridis; conditions: dosage 80 g/ha
In short: as §1

VIOTR [8] = assay: Pre-emergence herbicidal action against VIOTR; type: in vivo, Viola tricolor
In short: as §1

DIGSA [9] = assay: Pre-emergence herbicidal action against DIGSA; type: in vivo, Digitaria sanguinalis
In short: as §1

ABUTH [10] = assay: Post-emergence herbicidal action against ABUTH; type: in vivo, Abutilon theophrasti; conditions: visual assessment about 3 weeks after treatment vs untreated controls
In short: (§2)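 Foliar application at one-leaf stage of formulated test compounds, aqueous spray at 600–800 l/ha with 0.2% wetting agent. Greenhouse, optimal conditions, ~3 weeks; damage scored visually in % relative to untreated plants.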

ALOMY [11] = assay: Post-emergence herbicidal action against ALOMY; type: in vivo, Alopecurus myosuroides; conditions: dosage 20 g/ha, visual assessment about 3 weeks after treatment vs untreated controls
In short: as §2

AMARE [12] = assay: Post-emergence herbicidal action against AMARE; type: in vivo, Amaranthus retroflexus; conditions: 20 g/ha, visual assessment about 3 weeks after treatment, 100% = plants have died, 0% = like control plants
In short: as §2

AVEFA [13] = assay: Post-emergence herbicidal action against AVEFA; type: in vivo, Avena fatua; conditions: 20 g/ha, visual assessment about 3 weeks after treatment, 100% = plants have died, 0% = like control plants
In short: as §2

ECHCG [14] = assay: Post-emergence herbicidal action against ECHCG; type: in vivo, Echinochloa crus-galli
In short: as §2

MATIN [15] = assay: Post-emergence herbicidal action against MATIN; type: in vivo, Matricaria inodora
In short: as §2

PHBPU [16] = assay: Post-emergence herbicidal action against PHBPU; type: in vivo, Pharbitis purpurea
In short: as §2

SETVI [17] = assay: Post-emergence herbicidal action against SETVI; type: in vivo, Setaria viridis; conditions: dosage 20 g/ha
In short: as §2

VERPE = assay: Post-emergence herbicidal action against VERPE; type: in vivo, Veronica persica; conditions: 20 g/ha
In short: as §2

VIOTR [18] = assay: Post-emergence herbicidal action against VIOTR; type: in vivo, Viola tricolor
In short: as §2

DIGSA [19] = assay: Post-emergence herbicidal action against DIGSA; type: in vivo, Digitaria sanguinalis; conditions: for Post-emergence action against DIGSA: 20 g/ha
In short: as §2

AVEFA [20] = assay: Pre-emergence herbicidal action against AVEFA; type: in vivo, Avena fatua; conditions: 80 g/ha, pre-emergence
In short: as §1

[21] = 20 g/ha, scored visually after 3 weeks vs untreated controls, 100% = plants have died, 0% = like control plants
[22] = 80 g/ha, scored visually after 3 weeks vs untreated controls (100% = plants have died, 0% = like control plants)

Compound	Pre-emergence action against ABUTH (herbicidal activity) (ABUTH [1])	Pre-emergence action against ABUTH (herbicidal activity in percent) (ABUTH [1])	Pre-emergence action against ALOMY (herbicidal activity) (ALOMY [2])	Pre-emergence action against AMARE in % (AMARE [3]; [21])	Pre-emergence action against AMARE in % (AMARE [3]; [22])	Pre-emergence action against ECHCG in % (ECHCG [4])	Pre-emergence action against MATIN in % (MATIN [5]; dosage 20 g/ha)	Pre-emergence action against MATIN in % (MATIN [5]; dosage 80 g/ha)	Pre-emergence action against PHBPU in % (PHBPU [6])	Pre-emergence action against POLCO in % (POLCO; dosage 80 g/ha)	Pre-emergence action against SETVI in % (SETVI [7])	Pre-emergence action against VIOTR in % (VIOTR [8]; dosage 20 g/ha)	Pre-emergence action against VIOTR in % (VIOTR [8]; dosage 80 g/ha)	Pre-emergence action against DIGSA in % (DIGSA [9]; dosage 20 g/ha)	Pre-emergence action against DIGSA in % (DIGSA [9]; dosage 80 g/ha)	Post-emergence action against ABUTH in % (ABUTH [10]; dosage 20 g/ha)	Post-emergence action against ALOMY in % (ALOMY [11])	Post-emergence action at 20 g/ha against AMARE in % (AMARE [12])	Post-emergence action at 20 g/ha against AVEFA in % (AVEFA [13])	Post-emergence action against ECHCG in % (ECHCG [14]; dosage 5 g/ha)	further results
Cn1nnnc1NC(=O)c1ccc(C(F)(F)F)c(C(=O)NCC(F)F)c1C1CC1 [Example 1-291]	100%	100%	80%	100%	100%	90%	90%	100%	80%	80%	100%	100%	100%	100%	100%	90%	90%	90%	80%	80%	Post-emergence action against ABUTH in % (ABUTH [10]; dosage 5 g/ha): 80%; Post-emergence action against ECHCG in % (ECHCG [14]; dosage 20 g/ha): 80%; Post-emergence action against MATIN in % (MATIN [15]; dosage 5 g/ha): 80%; Post-emergence action against MATIN in % (MATIN [15]; dosage 20 g/ha): 90%; Post-emergence action against PHBPU in % (PHBPU [16]; dosage 5 g/ha): 80%; Post-emergence action against PHBPU in % (PHBPU [16]; dosage 20 g/ha): 90%; Post-emergence action against SETVI in % (SETVI [17]): 80%; Post-emergence action against VERPE in % (VERPE): 80%; Post-emergence action against VIOTR in % (VIOTR [18]; 5 g/ha): 90%; Post-emergence action against VIOTR in % (VIOTR [18]; 20 g/ha): 100%; Post-emergence action against DIGSA in % (DIGSA [19]; 5 g/ha): 90%; Post-emergence action against DIGSA (DIGSA [19]): 100%
CCn1nnnc1NC(=O)c1ccc(C(F)(F)F)c(C(=O)NC(C)C2CC2)c1C (stereo not shown) [Example 2-31]	100%	100%	80%	100%	100%	100%	100%	100%	80%	80%	100%	100%	100%	100%	100%	80%	80%	80%	80%	80%	Pre-emergence action against AVEFA in % (AVEFA [20]): 100%; Pre-emergence action against POLCO in % (POLCO; dosage 20 g/ha): 80%; Post-emergence action against ECHCG in % (ECHCG [14]; dosage 20 g/ha): 90%; Post-emergence action against MATIN in % (MATIN [15]; dosage 5 g/ha): 80%; Post-emergence action against MATIN in % (MATIN [15]; dosage 20 g/ha): 80%; Post-emergence action against PHBPU in % (PHBPU [16]; dosage 5 g/ha): 80%; Post-emergence action against PHBPU in % (PHBPU [16]; dosage 20 g/ha): 90%; Post-emergence action against VERPE in % (VERPE): 80%; Post-emergence action against DIGSA (DIGSA [19]): 80%
